# System: H9 embryonic stem cells
# Format: cell-based, human
# Conditions: low serum, on MEFS
# Experimental: Controls for each group included cells plated on […]-coated dishes and cultured in MEF-conditioned medium or cells plated on MEFs and cultured in ES medium. All groups contained three biological replicates and each biological replicate was repeated on two separate gene chips.
# Sample preparation, hybridization, and image analysis were performed according to the Affymetrix Human Genome U133 Plus 2.0 Array. Following normalization and a log transformation, data analysis was performed using OmniViz® software (MA) and […] (VizXLabs, WA). Significant differences in gene expression between the samples were evaluated using analysis of variance and an F-test with adjusted P-value (Benjamini and
# Hochberg correction) of ≦b 0.05. Only genes with a present call in at least one group were included in the analysis.
substance,measurement,value
Activin A: a member of the TGFβ superfamily; R&D Systems; Group 2 = Activin A (100 ng/ml),"log intensity, bHLH factor Hes4 (LOC57801)",2.4
same,"log intensity, beta3GalNAcT-1 mRNA for globoside synthase, clone: type 2",−0.0984
same,"log intensity, bone morphogenetic protein 2 (BMP2)",5.029
same,"log intensity, bone morphogenetic protein 5 (BMP5)",0.6148
same,"log intensity, bromodomain and PHD finger containing, 3",0.3694
same,"log intensity, c-mer proto-oncogene tyrosine kinase (MERTK)",3.617
same,"log intensity, cDNA FLJ11390 fis, clone HEMBA1000561",0.3644
same,"log intensity, cDNA FLJ13221 fis, clone NT2RP4002075",1.082
same,"log intensity, cDNA FLJ13392 fis, clone PLACE1001280",1.169
same,"log intensity, cDNA FLJ13810 fis, clone THYRO1000279",−0.8532
same,"log intensity, cDNA FLJ30081 fis, clone BGGI12000693",1.125
same,"log intensity, cDNA FLJ34035 fis, clone FCBBF2004788",−2.008
same,"log intensity, cDNA FLJ36116 fis, clone TESTI2022338",6.155
same,"log intensity, cDNA: FLJ22731 fis, clone HSI15841",2.241
same,"log intensity, cDNA: FLJ22808 fis, clone KAIA2925",2.414
same,"log intensity, cDNA: FLJ23067 fis, clone LNG04993",0.8825
same,"log intensity, calmegin (CLGN)",3.111
same,"log intensity, cardiac ankyrin repeat protein (CARP)",1.987
same,"log intensity, cartilage linking protein 1",0.9872
same,"log intensity, caspase-like apoptosis regulatory protein 2 (clarp)",5.2167
same,"log intensity, chemokine receptor CXCR4 mRNA",5.669
same,"log intensity, cleft lip and palate associated transmembrane protein 1, clone MGC: 10593",0.5567
same,"log intensity, clone FLC1492 PRO3121 mRNA",−3.392
same,"log intensity, clone HB-2 mRNA sequence",1.252
same,"log intensity, clone IMAGE: 3509274, mRNA, partial cds",0.7945
same,"log intensity, clone IMAGE: 4047715, mRNA",1.527
same,"log intensity, clone MGC: 14801",1.511
same,"log intensity, clone MGC: 24252 IMAGE: 3932604",1.593
same,"log intensity, clone TUA8 Cri-du-chat region mRNA",1.497
same,"log intensity, collagen, type V, alpha 1",1.666
same,"log intensity, complement component 5 (C5)",1.596
same,"log intensity, core histone macroH2A2.2 (MACROH2A2)",3.662
same,"log intensity, cystatin C (amyloid angiopathy and cerebral hemorrhage) (CST3)",3.52
same,"log intensity, deiodinase, iodothyronine, type III (DIO3)",4.229
same,"log intensity, dickkopf (Xenopus laevis) homolog 1 (DKK1)",1.09
same,"log intensity, dual specificity phosphatase 4, clone MGC: 3713",5.601
same,"log intensity, dynein, axonemal, light polypeptide 4 (DNAL4)",1.8494
same,"log intensity, dystrophin (muscular dystrophy, Duchenne and Becker types) (DMD), transcript variant Dp427p2",3.044
same,"log intensity, ectodermal dysplasia 1, anhidrotic (ED1)",3.078
same,"log intensity, elongation of very long chain fatty acids (FEN1Elo2, SUR4Elo3, yeast)-like 2 (ELOVL2)",1.508
same,"log intensity, endothelin receptor type A (EDNRA), mRNA",3.552
same,"log intensity, endothelin receptor type A (r1027)",1.954
same,"log intensity, enolase 2, (gamma, neuronal) (ENO2)",3.926
same,"log intensity, eomesodermin (Xenopus laevis) homolog (EOMES)",4.898
same,"log intensity, erythrocyte membrane protein band 4.9 (dematin) (EPB49)",0.9238
same,"log intensity, fasciculation and elongation protein zeta 1 (zygin I) (FEZ1), transcript variant 1",2.203
same,"log intensity, forkhead box F2 (FOXF2)",−1.115
same,"log intensity, gelsolin (amyloidosis, Finnish type) (GSN)",4.45
same,"log intensity, glucose-6-phosphate transporter (G6PT) gene, G6PT-Dt allele",0.4077
same,"log intensity, glutathione S-transferase A2 (GSTA2)",−0.4221
same,"log intensity, glycoprotein M6A",2.3278
same,"log intensity, guanylate cyclase activator 1B (retina) (GUCA1B)",0.685
same,"log intensity, heparan sulfate proteoglycan 2 (perlecan)",−0.9721
same,"log intensity, hexabrachion (tenascin C, cytotactin) (HXB)",2.854
same,"log intensity, high mobility group protein-R",0.09529
same,"log intensity, hypothetical protein BC017868 (LOC159091)",0.4016
same,"log intensity, hypothetical protein DKFZp434F0318",0.3947
same,"log intensity, hypothetical protein DKFZp434F2322",1.421
same,"log intensity, hypothetical protein DKFZp564B052",2.003
same,"log intensity, hypothetical protein FLJ10312",4.892
same,"log intensity, hypothetical protein FLJ11155",−0.7126
same,"log intensity, hypothetical protein FLJ11560",1.807
same,"log intensity, hypothetical protein FLJ12538 similar to ras-related protein RAB17",4.734
same,"log intensity, hypothetical protein FLJ12666 (r758)",1.405
same,"log intensity, hypothetical protein FLJ12666 (r998)",4.028
same,"log intensity, hypothetical protein FLJ12838",3.152
same,"log intensity, hypothetical protein FLJ21195 similar to protein related to DAC and cerberus",0.764
same,"log intensity, hypothetical protein FLJ22471",3.1349
same,"log intensity, hypothetical protein FLJ23091",3.042
same,"log intensity, hypothetical protein FLJ23514",5.247
same,"log intensity, hypothetical protein FLJ32835",3.947
same,"log intensity, hypothetical protein MGC2865, clone MGC: 20246",−1.506
same,"log intensity, insulin-like growth factor binding protein 6 (IGFBP6)",3.304
same,"log intensity, keratin 19 (KRT19)",5.919
same,"log intensity, kidney-specific membrane protein NX-17",3.45
same,"log intensity, lipase mRNA",0.5585
same,"log intensity, lymphocyte antigen 6 complex, locus E (LY6E)",4.926
same,"log intensity, mRNA for KIAA0876 protein",0.07325
same,"log intensity, mRNA for KIAA1161 protein",1.981
same,"log intensity, mRNA for MSX-2",1.945
same,"log intensity, mRNA for protein-tyrosine kinase",1.042
same,"log intensity, mRNA; cDNA DKFZp434E082",2.943
same,"log intensity, mRNA; cDNA DKFZp434K0621",2.214
same,"log intensity, mRNA; cDNA DKFZp434P228",3.113
same,"log intensity, mRNA; cDNA DKFZp547H236",2.081
same,"log intensity, mRNA; cDNA DKFZp564K1672",6.335
same,"log intensity, mRNA; cDNA DKFZp586G2120",0.523
same,"log intensity, mRNA; cDNA DKFZp586L0120",1.28
same,"log intensity, mRNA; cDNA DKFZp762H185",3.792
same,"log intensity, mandaselin long form",1.2296
same,"log intensity, matrix metalloproteinase 15 (membrane-inserted) (MMP15)",1.8336
same,"log intensity, microseminoprotein, beta-(MSMB)",0.1699
same,"log intensity, mitogen-activated protein kinase 10 (MAPK10)",2.286
same,"log intensity, nuclear factor of kappa light polypeptide gene enhancer in B-cells inhibitor, alpha",5.478
same,"log intensity, nuclear receptor subfamily 0, group B, member 1 (NR0B1) (r534)",1.279
same,"log intensity, nuclear receptor subfamily 0, group B, member 1 (NR0B1) (r1079)",3.298
same,"log intensity, nudix (nucleoside diphosphate linked moiety X)-type motif 4",5.689
same,"log intensity, olfactory receptor, family 52, subfamily A, member 1 (OR52A1)",0.6365
same,"log intensity, oxoglutarate dehydrogenase (lipoamide) (OGDH)",−0.3853
same,"log intensity, partial LHX9 gene for LIM-homeobox 9, 3UTR",−0.1342
same,"log intensity, partial mRNA for putative nuclear factor",2.679
same,"log intensity, phosphatidylinositol-4-phosphate 5-kinase, type I, beta (PIP5K1B)",2.467
same,"log intensity, phosphofructokinase, liver (PFKL)",2.704
same,"log intensity, pilin-like transcription factor (PILB)",4.382
same,"log intensity, pleiomorphic adenoma gene-like 1",0.2215
same,"log intensity, plexin A2",2.742
same,"log intensity, polycythemia rubra vera 1; cell surface receptor (PRV1)",0.9374
same,"log intensity, porcupine (MG61)",3.681
same,"log intensity, protease, serine, 4 (trypsin 4, brain)",3.359
same,"log intensity, protein S (alpha) (PROS1)",1.7883
same,"log intensity, protocadherin 10",2.986
same,"log intensity, putative 47 kDa protein (r448)",1.052
same,"log intensity, putative 47 kDa protein (r770)",0.8617
same,"log intensity, putative sterol reductase SR-1 (TM7SF2)",2.478
same,"log intensity, ras homolog gene family, member B",0.07189
same,"log intensity, receptor tyrosine kinase-like orphan receptor 2 (ROR2)",3.056
same,"log intensity, regulator of G protein signalling 5 (RGS5)",3.951
same,"log intensity, ret finger protein-like 2 (RFPL2)",0.5039
same,"log intensity, secreted apoptosis related protein 2 (SARP2)",5.743
same,"log intensity, secreted frizzled-related protein 1",4.218
same,"log intensity, sialyltransferase (STHM)",1.503
same,"log intensity, signal transducer and activator of transcription 3 (acute-phase response factor)",0.5602
same,"log intensity, singed (Drosophila)-like (sea urchin fascin homolog like) (SNL)",5.254
same,"log intensity, sodium dependent phosphate transporter isoform NaPi-IIb",0.232
same,"log intensity, solute carrier (SLC25A18)",−1.1
same,"log intensity, solute carrier family 9 (sodiumhydrogen exchanger), isoform 5 (SLC9A5)",1.196
same,"log intensity, stanniocalcin 1 (STC1), mRNA",5.28
same,"log intensity, stanniocalcin 1 (r1113)",5.701
same,"log intensity, testican 3 (HSAJ1454)",1.551
same,"log intensity, testis enhanced gene transcript (BAX inhibitor 1)",1.317
same,"log intensity, thyrotropin-releasing hormone (TRH)",−0.2584
same,"log intensity, transcription factor 2, hepatic; LF-B3; variant hepatic nuclear factor (TCF2), transcript variant a",2.543
same,"log intensity, transcriptional activator of the c-fos promoter (CROC4)",3.225
same,"log intensity, transmembrane tyrosine kinase mRNA",1.932
same,"log intensity, tropomodulin, clone MGC: 3643",1.464
same,"log intensity, tryptase, alpha",3.764
same,"log intensity, tudor repeat associator with PCTAIRE 2",3.275
same,"log intensity, tyrosine 3-monooxygenasetryptophan 5-monooxygenase activation protein, eta polypeptide (r705)",4.608
same,"log intensity, tyrosine 3-monooxygenasetryptophan 5-monooxygenase activation protein, eta polypeptide (r966)",4.926

# — US20100255580A1, “Differentiation of Human Embryonic Stem Cells” (LIFESCCAN, INC., priority 2007, published 2010)
